Assay results from US12707888B2, “Asymmetric donor-acceptor molecular dyes” (THE UNIVERSITY OF NORTH CAROLINA AT CHARLOTTE, priority 2019, dated 2026).

Assays:
[1] = Temperature studies of emission in MeTHF (thermofluorochromism); assay type: physicochemical; conditions: for wavelength of emission: 10 μM in MeTHF
Experimental: In an extension of sensing the surrounding polarity, the dependence of the wavelength of emission as a function of temperature and pH were also explored. For these efforts, Bu2N-TTz-Py was chosen as a focal representative of the asymmetric TTzs for its solubility, amphiphilicity, high Stokes shifts, and otherwise similar photophysical characteristics. For the temperature studies, a 10 μM MeTHF solution of Bu2N-TTz-Py was prepared and the emission of the solution was monitored from −196-60° C. MeTHF was chosen for its wide liquid temperature window and ability to form a glass upon freezing; most other solvents crystallize upon solidification and inhibit fluorescence. The low temperature studies were achieved using various liquid N2 cooling baths (see Experimental). Due to the condensation of atmospheric moisture during low-temperature testing, only the normalized emission intensities are reported. […] At temperatures near the freezing point of MeTHF and below, however, the wavelength of emission rapidly blue-shifts from 559 to 544 to 503 nm at −131, −136, and −196° C., respectively.
4-pyridine carboxaldehyde, 4-(dibutylamino)benzaldehyde, 4-(diphenylamino)benzaldehyde, terephthalaldehyde, dithiooxamide, and all solvents used for spectroscopic measurements were purchased from Sigma-Aldrich and used without further purification. ^1H and ^13CNMR measurements were obtained with either a JEOL 300 MHz NMR or a JEOL 500 MHz NMR. High resolution mass spectra were obtained using a Thermo Fisher Scientific MSQ Plus Single Quadrupole Mass Spectrometer. Solution-state UV-Vis spectra were collected on a Cary 300 UV-Vis spectrophotometer. Time-resolved measurements were taken on a Jobin Yvon-Spex Fluorolog equipped with a 389 nm diode laser for time-resolved PL decay measurements. Igor Pro 6.3 software was used to fit PL(t) decay data to single/multiple exponential decays. Quantum yields were calculated using 9,10-diphenylanthracene as a reference (quantum yield [ΦF] in cyclohexane=0.97).^40-41 Density functional theory (DFT) calculations were performed with Spartan computational software using B3LYP^42-43 density functional and 6-31G*^44 basis set. Temperature studies were conducted using a 10 μM Bu2N-TTz-Py MeTHF solution placed inside of a Norrell 502 NMR tube and sequentially submerged in the following liquid N2 baths:octanol (−16° C.), acetonitrile (−41° C.), acetone (−94° C.), pentane (−131° C.), MeTHF (−136° C.), and liquid N2 itself (−196° C.). The phosphorescence spectrum of Bu2N-TTz-Py (see S2) was collected similarly at −196° C. by pumping with 389 nm light while inside a liquid nitrogen bath and then probing the emission within 2 sec of removing from the bath. Human embryonic kidney cells (HEK 293T) were a kind gift from Prof. Bryan Dickinson, and Mouse macrophage J774A.1 cells were a kind gift from Prof. Deborah Nelson at the University of Chicago. Cells were cultured in Dulbecco's Modified Eagle's Medium (Invitrogen Corporation, USA) containing 10% heat inactivated Fetal Bovine Serum (FBS) (Invitrogen Corporation, USA), 100 U/mL penicillin, and 100 μg/mL streptomycin. Cells were maintained at 37° C. under 5% CO2.

HEK 293T cells [2] = experiment: Photostability under continuous illumination in cells; assay type: cell-based, Human
Experimental: FIG. 12B details photostability of Bu2N-TTz-Py and VF2.1.Cl in HEK 293T cells (illuminated using λ=440 nm at […]) and their representative pseudo-gray scale images under continuous illumination at wavelength of maximum excitation. Error bars a/b represent the standard error of mean (S.E.M.) for 3 independent experiments, n=12 total cells. Scale bar=10 μm.
Microscopy. Imaging was carried out on an IX83 inverted microscope (Olympus Corporation of the Americas, Center Valley, PA, USA) using 100×, 1.4 NA, DIC oil immersion objective (PLAPON, Olympus) and an Evolve Delta 512 EMCCD camera (Photometrics, USA). Filter wheel, shutter, and CCD camera were controlled using Metamorph premier Ver 7.8.12.0 (Molecular Devices, LLC, USA). For photostability studies, HEK 293T cells were labeled with 500 nM Bu2N-TTz-Py and illuminated continuously with ~5 W cm^−2 power light source, periodically acquiring images at 1 min interval. Bu2N-TTz-Py channel images were obtained using 480/20 bandpass excitation filter, 575/40 bandpass emission filter and 89016 dichroic. VF2.1.Cl channel images were obtained using 500/20 bandpass excitation filter, 535/40 bandpass emission filter and 69002 dichroic. For CellMask™ red, images were obtained using the 640/30 bandpass excitation filter, 705/72 bandpass emission filter and 89016 dichroic.

HEK 293T cells [3] = experiment: Annexin V-Cy5 cytotoxicity; assay type: cell-based, Human; conditions: 500 nM dye for 15 min
Experimental: FIG. 12C provides Annexin V-Cy5 staining of HEK 293T cells incubated with DMSO (Veh.), VF2.1.Cl, and Bu2N-TTz-Py. Apoptosis for control (incubated cells 65° C., 10 min). Percentages of cytotoxicity were calculated as number of 100×Cy5 positive cells per number of nuclei stained. Error bars represent S.E.M. of three independent experiments, n=250 cells. Scale bars=10 μm.
Lastly, the cellular toxicities of Bu2N-TTz-Py and VF2.1.Cl were characterized using Annexin V-Cy5 staining of phosphatidylserine. HEK 293T cells were labelled with Bu2N-TTz-Py or VF2.1.Cl for 15 min, incubated with Annexin V-Cy5 for 20 min in the dark, washed, and fixed with 4% paraformaldehyde before imaging. As a positive control, apoptosis was induced via high-temperature incubation (65° C., 10 min).
Cellular localization: Time-lapse imaging was performed to probe the membrane localization of Bu2N-TTz-Py at longer time scale. […] Intensity values at plasma membrane (IPM) were calculated by drawing regions of interest (ROI) around the whole cell and subtracting intracellular intensity (IIM, ROI drawn within the cell) for Bu2N-TTz-Py and CellMask images, respectively. […] Cytotoxicity percentage is calculated as number of Annexin V-Cy5 positive cells to total number of nuclear stained cells. Number of cells quantification were performed using Analyze particle function of ImageJ program.

CCCCN(CCCC)c1ccc(-c2nc3sc(-c4ccncc4)nc3s2)cc1 [Bu2N-TTz-Py, 2-(N,N-dibutyl-4-aminophenyl)-5-(4-pyridyl) thiazolo[5,4-d]thiazole]
wavelength of emission ([1]; 60° C.): 519 nm
wavelength of emission ([1]; −131° C.): 559 nm
wavelength of emission ([1]; −136° C.): 544 nm
wavelength of emission ([1]; −196° C.): 503 nm
temperature sensitivity of emission wavelength ([1]; TTz/MeTHF solution, liquid range of MeTHF): −0.21 nm ° C.^−1
molar absorptivity ε (HEK 293T cells [2]; @ 440 nm LED): 15,000-20,000 cm^−1 M^−1
decay of fluorescence intensity (HEK 293T cells [2]; in the same amount of time (approx. 7.5 minutes), I=5 W cm^−2, 440 nm LED): less than 10%
cytotoxicity (Annexin V-Cy5 staining) (HEK 293T cells [3]): insignificant cytotoxicity
